Results from patent publication US9683934B2, “Terahertz spectroscopy for predicting stability of amorphous drugs” (Cambridge Enterprise Limited, priority 2013, dated 2017).

Key:
[1] = Glass-transition temperature, Tg; type: physicochemical
[2] = Terahertz time-domain spectroscopy (THz-TDS) dielectric losses of polyalcohols, linear fits ε″(T/Tg)=A+BT/Tg; type: physicochemical; conditions: for B3, linear coefficient of ε″(T/Tg)=A+BT/Tg in region (iii) / B1, linear coefficient of ε″(T/Tg)=A+BT/Tg in region (i) / B2, linear coefficient of ε″(T/Tg)=A+BT/Tg in region (ii): 1 THz, brackets = standard deviation at last decimal place; for B3, linear coefficient of ε″(T/Tg)=A+BT/Tg in region (iii): above Tg; for B1, linear coefficient of ε″(T/Tg)=A+BT/Tg in region (i): below about 0.6 Tg; for B2, linear coefficient of ε″(T/Tg)=A+BT/Tg in region (ii): between about 0.6 Tg and Tg; for Tα, crossover point of linear fits from region (ii) to region (iii) / Tβ, crossover point of linear fits from region (i) to region (ii) / Tβ/Tg: dielectric losses at 1 THz
Source text: In these examples, systematic THz-TDS study allows direct access to the complex dielectric function for the frequency range of 0.1-3 THz, over a wide range of temperatures. For these experiments, the samples were melted (except glycerol, which is liquid at room temperature), loaded into a continuous-flow cryostat and cooled at a rate of approximately 25 K·min^−1 to 80 K, followed by subsequent heating by 10 K increments to 310 K. Spectra were acquired using a THz-TDS setup operating in transmission geometry. All four polyalcohols were purchased from Sigma-Aldrich with >99% purity. The samples were used without further purification. […] The solid lines represent linear fits to the data in regions (i) below a transition temperature of about 0.6 Tg, (ii) between the transition temperature and Tg, and (iii), above Tg. The dashed vertical lines highlight the temperatures 0.6Tg and Tg, respectively. Tβ and Tα represent the crossover points (changes in gradient) of the linear fits from region (i) to region (ii), and from region (ii) to region (iii), respectively. […] The temperature dependence of ∈″(v) at v=1 THz is shown in FIG. 6 for all four polyalcohol materials. Here, we use the rescaled temperature T/Tg on the abscissa to compare the common features of the glassy state between the different polyalcohols. Three absorption regimes can be resolved in all samples: (i) temperature-independent losses; ii) a weak temperature dependence of losses below Tg; and iii) a strong temperature dependence of losses above Tg, as proposed previously. More detailed information was extracted by fitting the data points with an empirical linear fit, viz. ∈″(T/Tg)=A+BT/Tg, in each of the respective temperature regions. In Table I, we summarize the crossover temperatures Tβ and Tα between regions (i)-(ii) and (ii)-(iii), respectively, together with the respective gradients B1,2,3 obtained separately for each region, (i), (ii) and (iii). For all samples, Tα corresponds to Tg, the temperature above which the temperature-dependent part of ∈″(v) becomes dominated by the primary dielectric relaxation.

[3] = known from earlier investigations; cited from earlier work
[4] = cited from earlier work; for stability of the glass (amorphous phase): known from direct measurements of crystallisation during storage; for resistance to crystallisation of the amorphous material below Tg: stored below Tg
[5] = Terahertz absorption coefficient of amorphous paracetamol and indomethacin at 1 THz versus T/Tg; type: physicochemical; conditions: transmission
Source text: FIG. 3 plots the results of the characterisation of these materials. FIG. 3 plots the absorption coefficient for terahertz radiation (α/cm^−1) measured in transmission through the material at 1 THz, against temperature (plotted as T/Tg) for each material. As set out in the Summary of the Invention, the rate of change of the loss of EM radiation with temperature (the gradient of the graph in FIG. 3) may then be assessed, or measured, and as appropriate compared with a predetermined value in order to achieve a quantitative, or relative, characterisation of the stability of the amorphous material as described below. In FIG. 3, the plotted results for indomethacin show two distinct linear regions, firstly a small and constant rate of change, or gradient, for the absorption of the radiation below Tg, and secondly a marked change to a higher rate of change, or gradient, above Tg. By contrast the plotted results for paracetamol show three different linear regions, namely a low rate of change below a transition temperature of about 0.6 Tg, a higher rate of change between 0.6 Tg and Tg, and a still higher rate of change above Tg.

[6] = trehalose/glycerol mixtures by glycerol weight concentration, Table 3

| Structure (SMILES) | Tg ([1]; polyalcohols, Table 1) [°C] | B3, linear coefficient of ε″(T/Tg)=A+BT/Tg in region (iii) [2] | B1, linear coefficient of ε″(T/Tg)=A+BT/Tg in region (i) [2] | B2, linear coefficient of ε″(T/Tg)=A+BT/Tg in region (ii) [2] | Tα, crossover point of linear fits from region (ii) to region (iii) [2] [K] | Tβ, crossover point of linear fits from region (i) to region (ii) [2] [K] | Tβ/Tg [2] | temperature above which the sample recrystallised ([2]; during heating in the THz-TDS run) | fragility index, m [3] | Tg [1, 6] [°C] | stability of the glass (amorphous phase) [4] | resistance to crystallisation of the amorphous material below Tg [4] | thermal change in absorption of terahertz radiation between 0.6 Tg-1.0 Tg [5] | stability of the amorphous material indicated by gradient in region (ii) and changes in gradient ([2]; FIG. 5) |
| --- | --- | --- | --- | --- | --- | --- | --- | --- | --- | --- | --- | --- | --- | --- |
| OC[C@@H](O)[C@H](O)CO [threitol] | -46.8 | 0.43(15) | 0.07(1) | 0.09(1) | 228 | 147 | 0.65 | above 250 K | 79 | – | – | – | – | – |
| OC[C@@H](O)[C@H](O)[C@@H](O)CO [xylitol] | -25.3 | 0.82(4) | 0.06(1) | 0.13(3) | 248 | 167 | 0.68 | – | 94 | – | – | – | – | – |
| OC[C@H]1O[C@H](O[C@H]2O[C@H](CO)[C@@H](O)[C@H](O)[C@H]2O)[C@H](O)[C@@H](O)[C@@H]1O [0%, trehalose] | – | – | – | – | – | – | – | – | – | 115 | – | – | – | – |
| CC(=O)Nc1ccc(O)cc1 [paracetamol] | – | – | – | – | – | – | – | – | – | – | poor stability | crystallises rather readily | well developed | – |
| COc1ccc2c(c1)c(CC(=O)O)c(C)n2C(=O)c1ccc(Cl)cc1 [indomethacin] | – | – | – | – | – | – | – | – | – | – | very good stability | much more stable | very low | – |
| OC[C@@H](O)[C@@H](O)[C@H](O)[C@@H](O)CO [sorbitol] | -4.8 | 1.92(5) | 0.02(2) | 0.34(2) | 265 | 150 | 0.56 | – | 128 | – | – | – | – | relatively poor stability |
| OCC(O)CO [glycerol] | -81.4 | 0.64(1) | 0.03(1) | – | 189 | – | – | – | 57 | -83 | – | – | – | – |
